This is an account of results in paper PMC10154443, “Peptide-based PET imaging agent of tumor TIGIT expression” (EJNMMI Research, 2023).

Where a SMILES comes first, the peptide text is derived from it. [ ]: non-standard residue; d: D form. The star is where a group is joined. DOTA = O=C(O)CN1CCN(CC(=O)O)CCN(CC(=O)*)CCN(CC(=O)O)CC1; Ahx = NCCCCCC(=O)O

Series [1] has as its system 4T1 tumor-bearing BALB/c mice. It is filed as in vivo. As to the method: (§1) Female BALB/c mice of 4–5 weeks were purchased from Beijing Biotechnology Co., Ltd. (Beijing, China). The 4T1 murine cancer model was established by the injection of 3 × 10^5 cells/150 μl into the front right limbs of female BALB/c mice. Experiments started when the tumors reached a volume of approximately 250–350 mm^3.
PET images were acquired on a micro-PET scanner (InliView-3000B, Minfound, Hangzhou, China). Mice bearing subcutaneous tumors were anesthetized with isoflurane (1.0–1.5%) and then were injected with about 5.55 MBq of ^68Ga-DOTA-^DTBP-3 via the tail vein. In the blocking group, tumor-bearing BALB/c were pretreated with the 40-fold excess of ^DTBP-3 for 0.5 h, and then injected equal dose of radiotracer with the above groups. Static imaging (15 min) was collected at different time points (0.5, 1 and 2 h post-injection).

For another series, the system named is 4T1 cells. The series is described as follows: cell uptake experiment, 4T1 cells. It is filed as cell-based, murine. As for the experimental part: (§2) For cell uptake experiments, 4T1 and A375 cells were incubated with ^68Ga-DOTA-^DTBP-3 at different time points (15, 30, 60 and 120 min), respectively. Then, the cells were washed 3 times with cold PBS, and 0.1 M NaOH solution was used to lyse the cells and collected for γ-count.

Series [2] deals with 4T1 tumor-bearing BALB/c mice. It is filed as in vivo. As to the method:
as §1
Female BALB/c tumor-bearing mice with subcutaneous 4T1 xenografts were randomly divided into 2 groups (n = 9 for the experimental group, and n = 3 for the blocking group), and then were injected with 3.70 MBq of ^68Ga-DOTA-^DTBP-3 via the tail vein. At different time points (0.5, 1 and 2 h post-injection for the experimental group, 0.5 h post-injection for the blocking group), the mice were euthanized, and the tumor, main organs (muscle, bone, large intestine, small intestine, stomach, kidney, spleen, liver, lung, heart, brain) and blood were weighed and counted by a γ counter. The results are expressed as percentage injected dose per gram of tissue (% ID/g), and the values were calculated based on signal decay correction and normalization to external ^68Ga standards.
This is another data set of the same source.

Another series relates to A375 cells. The series can be described thus: cell uptake experiment, A375 cells. It is filed as cell-based, human. Particulars: A375 cells (low TIGIT expression), at 0.5 h; time points 15, 30, 60, 120 min; γ-count. As to the method: as §2

For `CC(C)C[C@@H](NC(=O)[C@@H](CCCNC(=N)N)NC(=O)[C@@H](Cc1c[nH]cn1)NC(=O)[C@@H](Cc1c[nH]c2ccccc12)NC(=O)[C@@H](Cc1c[nH]cn1)NC(=O)[C@@H](Cc1ccccc1)NC(=O)[C@H](NC(=O)[C@@H](Cc1ccc(O)cc1)NC(=O)CNC(=O)CNC(=O)CCCCCNC(=O)CN1CCN(CC(=O)O)CCN(CC(=O)O)CCN(CC(=O)O)CC1)[C@H](C)O)C(=O)N[C@H](CC(N)=O)C(=O)N1CCC[C@@H]1C(=O)O` [^68Ga-DOTA-^DTBP-3, metal not drawn] ({DOTA-Ahx}-GG[dY][dT][dF][dH][dW][dH][dR][dL][dN][dP]-OH; N-terminus and C-terminus assumed), in series [1] (4T1 tumor, 0.5 h after intravenous injection, about 5.55 MBq, n = 3), the “tumor uptake on micro-PET” value was 3.49 ± 0.14. Moreover, the “tumor uptake on micro-PET, blocking group” value in series [1] (4T1 tumor-bearing mice pretreated with 40-fold excess unlabeled ^DTBP-3 for 0.5 h) is reported as “no obvious uptake”. Also, in series [1] (mouse, in vivo), the “time of peak uptake of tumor tissue” value is listed as “about 0.5 h”. In addition, in the series on 4T1 cells (4T1 cells (high TIGIT expression), at 0.5 h, time points 15, 30, 60, 120 min, γ-count), the “cell uptake of radiotracer (highest)” value was 8.41 ± 1.22%. In addition, the “4T1 cellular uptake with excess unlabeled ^DTBP-3 (blocking)” value in the series with 4T1 cells (4T1 cells, excess unlabeled ^DTBP-3) is on record as “could be blocked”. Besides, in series [2] (0.5 h post-injection), the “tumor-to-blood ratio (biodistribution)” value is on record as “high” and the “tumor-to-muscle ratio (biodistribution)” value was “high”. Also, the “clearance from the blood” value in series [2] (mouse, in vivo) is “quickly cleared”. The “cell uptake of radiotracer (highest)” value with A375 cells was 2.56 ± 0.19%.
